Data published in US20230295182A1, “SPIRO DERIVATIVES OF ALPHA-D-GALACTOPYRANOSIDES” (Idorsia Pharmaceuticals Ltd, priority 2020, published 2023).
Where two headings read alike, the source gives them in different places.

Key:
[1] = biological target: human Gal-1 (hGal-1) (Homo sapiens, UniProt P09382); experiment: Competitive binding assay: biotinylated hGal-1 to microplate-adsorbed asialofetuin (ASF)
Procedure: Evaluation of Compound Inhibitory Activity (IC50) The inhibitory activity of compounds is determined in competitive binding assays. […] Alternatively, and preferably, a human Gal-1 version in which all six cysteines are substituted by serines may be used. Briefly, compounds are serially diluted in DMSO (working dilutions). […] Plates are incubated for 3 hours at 4° C., then washed with cold assay buffer (3×50 uL), incubated for 1 hour with 25 μL/well of a streptavidin-peroxidase solution (diluted in assay buffer to 80 ng/mL) at 4° C., followed by further washing steps with assay buffer (3×50 uL). Finally, 25 µL/well of ABTS substrate is added. […] The calculated IC50 values may fluctuate depending on the daily assay performance. Fluctuations of this kind are known to those skilled in the art. IC50 values from several measurements are given as mean values.

[2] = biological target: human Gal-3 (hGal-3) (Homo sapiens (Human), UniProt P17931); experiment: Competitive binding assay: biotinylated hGal-3 to microplate-adsorbed asialofetuin (ASF); settings: Activity on hGal-3; binding to ASF-coated plates, 3 hours at 4° C.; mean values
Procedure: Evaluation of Compound Inhibitory Activity (IC50)
The inhibitory activity of compounds is determined in competitive binding assays. This spectrophotometric assay measures the binding of biotinylated human Gal-3 (hGal-3) or human Gal-1 (hGal-1), respectively, to a microplate-adsorbed glycoprotein, asialofetuin (ASF) (Proc Natl Acad Sci USA. 2013 Mar. 26; 110(13):5052-7.). Alternatively, and preferably, a human Gal-1 version in which all six cysteines are substituted by serines may be used.
Briefly, compounds are serially diluted in DMSO (working dilutions). ASF-coated 384 well plates are supplemented with 22.8 μL/well of biotinylated hGal-3 or hGal-1 in assay buffer (i.e. 300-1000 ng/mL biotinylated hGal-3 or hGal-1) to which 1.2 µL of compound working dilutions are added and mixed.
Plates are incubated for 3 hours at 4° C., then washed with cold assay buffer (3×50 uL), incubated for 1 hour with 25 μL/well of a streptavidin-peroxidase solution (diluted in assay buffer to 80 ng/mL) at 4° C., followed by further washing steps with assay buffer (3×50 uL). Finally, 25 µL/well of ABTS substrate is added.
The calculated IC50 values may fluctuate depending on the daily assay performance. Fluctuations of this kind are known to those skilled in the art. IC50 values from several measurements are given as mean values.

[3] = Activities on hGal-1; binding to ASF-coated plates, 3 hours at 4° C.; mean values; read-out: Gal-1 IC50

Chain of human Gal-3 (hGal-3) (P17931 whole entry): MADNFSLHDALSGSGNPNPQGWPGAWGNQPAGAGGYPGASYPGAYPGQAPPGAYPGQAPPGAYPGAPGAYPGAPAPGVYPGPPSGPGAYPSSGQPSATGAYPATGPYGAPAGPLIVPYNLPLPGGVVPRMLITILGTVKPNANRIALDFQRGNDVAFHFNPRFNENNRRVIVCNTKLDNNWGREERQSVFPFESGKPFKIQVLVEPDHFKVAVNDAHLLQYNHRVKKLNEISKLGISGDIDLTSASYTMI
Chain of human Gal-1 (hGal-1) (P09382 2-135 limits assumed): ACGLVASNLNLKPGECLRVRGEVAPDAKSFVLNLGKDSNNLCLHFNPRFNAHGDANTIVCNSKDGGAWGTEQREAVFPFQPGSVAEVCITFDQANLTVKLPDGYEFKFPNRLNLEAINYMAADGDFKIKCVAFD

IC50 [1, 3] [µM] | IC50 [2] [µM] | IC50 ([1]; read-out: Gal-1 IC50; Activities on hGal-1; binding to ASF-coated plates, 3 hours at 4° C.; mean values) [µM] | Compound
2.4 | 0.22 | – | CO[C@@H]1[C@@H](n2cc(-c3cc(F)c(F)c(F)c3)nn2)[C@@H](O)[C@@H](CO)O[C@@H]1CC1=NO[C@]2(CC[C@H](NC(C)C)CC2)C1 [Example 2.12, (2R,3R,4S,5R,6R)-2-(hydroxymethyl)-6-(((5r,8R)-8-(isopropylamino)-1-oxa-2-azaspiro[4.5]dec-2-en-3-yl)methyl)-5-methoxy-4-(4-(3,4,5-trifluorophenyl)-1H-1,2,3-triazol-1-yl)tetrahydro-2H-pyran-3-ol]
4 | 0.11 | – | CO[C@@H]1[C@@H](n2cc(-c3ccc(C)c(F)c3F)nn2)[C@@H](O)[C@@H](CO)O[C@@H]1CC1=NOC2(CCC(F)(F)CC2)C1 [Example 1.26, (2R,3R,4S,5R,6R)-6-((8,8-difluoro-1-oxa-2-azaspiro[4.5]dec-2-en-3-yl)methyl)-4-(4-(2,3-difluoro-4-methylphenyl)-1H-1,2,3-triazol-1-yl)-2-(hydroxymethyl)-5-methoxytetrahydro-2H-pyran-3-ol]
2 | 0.089 | – | CO[C@@H]1[C@@H](n2cc(-c3cc(F)c(F)c(F)c3)nn2)[C@@H](O)[C@@H](CO)O[C@@H]1CC1=NO[C@]2(CC[C@H](C#N)CC2)C1 [Example 1.40, (5r,8R)-3-(((2R,3R,4S,5R,6R)-5-hydroxy-6-(hydroxymethyl)-3-methoxy-4-(4-(3,4,5-trifluorophenyl)-1H-1,2,3-triazol-1-yl)tetrahydro-2H-pyran-2-yl)methyl)-1-oxa-2-azaspiro[4.5]dec-2-ene-8-carbonitrile]
4.4 | 0.4 | – | CO[C@@H]1[C@@H](n2cc(-c3ccc(Cl)c(F)c3F)nn2)[C@@H](O)[C@@H](CO)O[C@@H]1CC1=NOC2(CCC(C(C)(C)O)CC2)C1 (stereo partly drawn) [Example 1.55, (2R,3R,4S,5R,6R)-4-(4-(4-chloro-2,3-difluorophenyl)-1H-1,2,3-triazol-1-yl)-2-(hydroxymethyl)-6-((8-(2-hydroxypropan-2-yl)-1-oxa-2-azaspiro[4.5]dec-2-en-3-yl)methyl)-5-methoxytetrahydro-2H-pyran-3-ol]
3.5 | 0.76 | – | CO[C@@H]1[C@@H](n2cc(-c3cc(F)c(F)c(F)c3)nn2)[C@@H](O)[C@@H](CO)O[C@@H]1CC1=NOC2(CCOCC2)C1 [Example 1.23, (2R,3R,4S,5R,6R)-6-((1,8-dioxa-2-azaspiro[4.5]dec-2-en-3-yl)methyl)-2-(hydroxymethyl)-5-methoxy-4-(4-(3,4,5-trifluorophenyl)-1H-1,2,3-triazol-1-yl)tetrahydro-2H-pyran-3-ol]
5.6 | 0.14 | – | COC(=O)CO[C@@H]1[C@@H](n2cc(-c3ccc(C)c(F)c3F)nn2)[C@@H](O)[C@@H](CO)O[C@@H]1CC1=NOC2(CCC(F)(F)CC2)C1 [Example 1.72, methyl 2-(((2R,3R,4S,5R,6R)-2-((8,8-difluoro-1-oxa-2-azaspiro[4.5]dec-2-en-3-yl)methyl)-4-(4-(2,3-difluoro-4-methylphenyl)-1H-1,2,3-triazol-1-yl)-5-hydroxy-6-(hydroxymethyl)tetrahydro-2H-pyran-3-yl)oxy)acetate]
– | 0.28 | 2.2 | OC[C@H]1O[C@H](CC2=NOC3(CCCCC3)C2)[C@H](O)[C@@H](n2cc(-c3cc(F)c(F)c(F)c3)nn2)[C@H]1O [Example 1.05, (2R,3R,4R,5R,6R)-2-((1-oxa-2-azaspiro[4.5]dec-2-en-3-yl)methyl)-6-(hydroxymethyl)-4-(4-(3,4,5-trifluorophenyl)-1H-1,2,3-triazol-1-yl)tetrahydro-2H-pyran-3,5-diol]
3.1 | – | – | CO[C@@H]1[C@@H](n2cc(-c3cc(F)c(F)c(F)c3)nn2)[C@@H](O)[C@@H](CO)O[C@@H]1CC1=NOC2(CCC(C)CC2)C1 (stereo partly drawn) [Example 1.30, (2R,3R,4S,5R,6R)-2-(hydroxymethyl)-5-methoxy-6-((8-methyl-1-oxa-2-azaspiro[4.5]dec-2-en-3-yl)methyl)-4-(4-(3,4,5-trifluorophenyl)-1H-1,2,3-triazol-1-yl)tetrahydro-2H-pyran-3-ol]
2.9 | – | – | OC[C@H]1O[C@H](CC2=NOC3(CCCCC3)C2)[C@H](OCC(F)F)[C@@H](n2cc(-c3cc(F)c(F)c(F)c3)nn2)[C@H]1O [Example 1.67, (2R,3R,4S,5R,6R)-6-((1-oxa-2-azaspiro[4.5]dec-2-en-3-yl)methyl)-5-(2,2-difluoroethoxy)-2-(hydroxymethyl)-4-(4-(3,4,5-trifluorophenyl)-1H-1,2,3-triazol-1-yl)tetrahydro-2H-pyran-3-ol]

Further lines, the compound ahead of its results:

Compound | IC50 [1, 3] [µM] | IC50 [2] [µM] | IC50 ([1]; read-out: Gal-1 IC50; Activities on hGal-1; binding to ASF-coated plates, 3 hours at 4° C.; mean values) [µM]
CO[C@@H]1[C@@H](n2cc(-c3cc(F)c(F)c(F)c3)nn2)[C@@H](O)[C@@H](CO)O[C@@H]1CN1CC2(CCN(C(=O)OC(C)(C)C)CC2)OC1=O [Example 3.01, tert-butyl 3-(((2R,3R,4S,5R,6R)-5-hydroxy-6-(hydroxymethyl)-3-methoxy-4-(4-(3,4,5-trifluorophenyl)-1H-1,2,3-triazol-1-yl)tetrahydro-2H-pyran-2-yl)methyl)-2-oxo-1-oxa-3,8-diazaspiro[4.5]decane-8-carboxylate] | 2.7 | 0.12 | –
CO[C@@H]1[C@@H](n2cc(-c3ccc(Cl)c(F)c3F)nn2)[C@@H](O)[C@@H](CO)O[C@@H]1CC1=NOC2(C1)C[C@@H](C(=O)O)N(C(=O)OC(C)(C)C)C2 (mixture of isomers) [Example 1.78, (5RS,8S)-7-(tert-butoxycarbonyl)-3-(((2R,3R,4S,5R,6R)-4-(4-(4-chloro-2,3-difluorophenyl)-1H-1,2,3-triazol-1-yl)-5-hydroxy-6-(hydroxymethyl)-3-methoxytetrahydro-2H-pyran-2-yl)methyl)-1-oxa-2,7-diazaspiro[4.4]non-2-ene-8-carboxylic acid] | 12 | 0.27 | –
CO[C@@H]1[C@@H](n2cc(-c3cc(F)c(F)c(F)c3)nn2)[C@@H](O)[C@@H](CO)O[C@@H]1CC1=NOC2(CCC(N3CCOCC3)CC2)C1 (stereo partly drawn) [Example 2.19, (2R,3R,4S,5R,6R)-2-(hydroxymethyl)-5-methoxy-6-((8-morpholino-1-oxa-2-azaspiro[4.5]dec-2-en-3-yl)methyl)-4-(4-(3,4,5-trifluorophenyl)-1H-1,2,3-triazol-1-yl)tetrahydro-2H-pyran-3-ol] | 1.7 | 0.39 | –
CO[C@@H]1[C@@H](n2cc(-c3cc(F)c(F)c(F)c3)nn2)[C@@H](O)[C@@H](CO)O[C@@H]1CC1=NOC2(CCC(NC(=O)OC(C)(C)C)CC2)C1 (stereo partly drawn) [Example 1.11, tert-butyl (3-(((2R,3R,4S,5R,6R)-5-hydroxy-6-(hydroxymethyl)-3-methoxy-4-(4-(3,4,5-trifluorophenyl)-1H-1,2,3-triazol-1-yl)tetrahydro-2H-pyran-2-yl)methyl)-1-oxa-2-azaspiro[4.5]dec-2-en-8-yl)carbamate] | 1.5 | 0.069 | –
CO[C@@H]1[C@@H](n2cc(-c3ccc(Cl)c(F)c3)nn2)[C@@H](O)[C@@H](CO)O[C@@H]1CC1=NOC2(CCCCC2)C1 [Example 1.12, (2R,3R,4S,5R,6R)-6-((1-oxa-2-azaspiro[4.5]dec-2-en-3-yl)methyl)-4-(4-(4-chloro-3-fluorophenyl)-1H-1,2,3-triazol-1-yl)-2-(hydroxymethyl)-5-methoxytetrahydro-2H-pyran-3-ol] | 1.1 | 0.31 | –
CCC(CC)NC1CCC2(CC1)CC(C[C@H]1O[C@H](CO)[C@H](O)[C@H](n3cc(-c4cc(F)c(F)c(F)c4)nn3)[C@H]1OC)=NO2 (stereo partly drawn) [Example 2.14, (2R,3R,4S,5R,6R)-2-(hydroxymethyl)-5-methoxy-6-((8-(pentan-3-ylamino)-1-oxa-2-azaspiro[4.5]dec-2-en-3-yl)methyl)-4-(4-(3,4,5-trifluorophenyl)-1H-1,2,3-triazol-1-yl)tetrahydro-2H-pyran-3-ol] | 2.6 | 0.39 | –
CO[C@@H]1[C@@H](n2cc(-c3ccc(C)c(F)c3F)nn2)[C@@H](O)[C@@H](CO)O[C@@H]1CN1CC2(CCCCC2)NC1=O [Example 4.01, 3-(((2R,3R,4S,5R,6R)-4-(4-(2,3-difluoro-4-methylphenyl)-1H-1,2,3-triazol-1-yl)-5-hydroxy-6-(hydroxymethyl)-3-methoxytetrahydro-2H-pyran-2-yl)methyl)-1,3-diazaspiro[4.5]decan-2-one] | 1.3 | – | –
